Values quoted from earlier work as cited in patent publication US5688981A, “Ethylenediaminetriacetic acid and N-acyl ethylenediaminetriacetic acid silver chelating agents and surfactants” (Hampshire Chemical Corp., priority 1996, dated 1997).

Columns and labels:
[1] = background

SMILES	concentration with propensity towards protein precipitation (protein)	toxicity on oral administration [1]
[Ag][I] [silver iodide]	10^-4 M	–
O=C([O-])CC(O)(CC(=O)[O-])C(=O)[O-].[Ag+].[Ag+].[Ag+] [silver citrate]	10^-4 M	–
[Ag+].[Ag+].[O-2] [silver oxide]	10^-4 M	–
CC(O)C(=O)[O-].[Ag+] (centres unmarked) [silver lactate]	10^-4 M	–
O=[N+]([O-])[O-].[Ag+] [silver nitrate]	–	can cause severe gastroenteritis which may be fatal
